The subject of test [1] is Mo7e cells (SCF dependent). In words: c-Kit ligand (SCF) dependent cell proliferation. The test is classed as cell-based. The conditions noted are these: SCF 50 ng/ml, 72 hours, MTS. The method, then: SCF dependent cell proliferation:
Mo7e cells (SCF dependent) were plated into 96-well plates at 15000 per well and incubated in 1640 medium with 10% FBS and SCF (50 ng/ml) for 24 hours. Compounds were added and incubated for 72 hours at 37° C. in CO2 incubator. The effects on proliferation were determined by addition of MTS reagent (Promega) according to the instruction, incubation for 2 hours at 37° C. in CO2 incubator, and record the absorbance at 490 nm using an ELISA plate reader.

The next test addresses T1, Flt3 (Homo sapiens, UniProt P36888).
T1 construct: purchased Cell Signaling
T1 sequence (P36888 27-993): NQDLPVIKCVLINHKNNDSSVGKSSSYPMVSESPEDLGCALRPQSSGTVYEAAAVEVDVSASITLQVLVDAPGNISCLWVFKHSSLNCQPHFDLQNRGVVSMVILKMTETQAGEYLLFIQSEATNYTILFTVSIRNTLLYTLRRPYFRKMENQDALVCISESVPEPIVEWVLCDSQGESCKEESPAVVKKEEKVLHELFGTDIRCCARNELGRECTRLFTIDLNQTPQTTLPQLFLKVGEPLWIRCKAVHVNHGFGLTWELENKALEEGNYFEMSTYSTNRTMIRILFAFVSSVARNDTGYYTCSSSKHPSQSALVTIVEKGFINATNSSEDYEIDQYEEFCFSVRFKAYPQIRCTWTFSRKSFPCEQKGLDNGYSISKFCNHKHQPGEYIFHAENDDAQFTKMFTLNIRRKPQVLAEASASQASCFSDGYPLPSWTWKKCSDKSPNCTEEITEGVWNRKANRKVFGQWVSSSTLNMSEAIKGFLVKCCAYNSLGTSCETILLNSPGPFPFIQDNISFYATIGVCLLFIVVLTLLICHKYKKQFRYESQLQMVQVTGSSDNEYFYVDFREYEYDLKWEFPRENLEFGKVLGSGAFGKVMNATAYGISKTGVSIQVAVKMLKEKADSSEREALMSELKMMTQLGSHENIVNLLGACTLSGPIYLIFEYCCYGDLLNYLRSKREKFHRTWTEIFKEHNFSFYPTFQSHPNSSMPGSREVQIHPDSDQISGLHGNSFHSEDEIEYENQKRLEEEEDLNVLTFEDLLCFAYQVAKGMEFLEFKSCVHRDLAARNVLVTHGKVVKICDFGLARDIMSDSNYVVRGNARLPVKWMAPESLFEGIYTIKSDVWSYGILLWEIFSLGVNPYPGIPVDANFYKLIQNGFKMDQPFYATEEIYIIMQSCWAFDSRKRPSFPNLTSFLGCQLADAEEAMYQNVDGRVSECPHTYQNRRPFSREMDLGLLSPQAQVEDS
In words: Flt3 kinase ELISA bioassay. Type of test: biochemical. As to conditions: ELISA kinase assay, 200 μM ATP. The method, then: This assay is used to measure in vitro kinase activity of Flt3 in an ELISA assay.
• 1. Streptavidin coated, 96-well, white plate • 2. Phospho-Tyrosine Monoclonal Antibody (P-Tyr-100) (Cell Signaling) • 3. HRP-labeled anti-mouse IgG (Upstate) • 4. HTScan™ Tyrosine Kinase Buffer (4×) • 5. DTT (1000×. 1.25 M) • 6. ATP (10 mM) • 7. KDR (Tyr996) Biotinylated Peptide Substrate (Cell Signaling) • 8. Flt3 Kinase (recombinant, human) (Cell Signaling) • 9. Wash Buffer: 1× PBS, 0.05% Tween-20 (PBS/T) • 10. Bovine Serum Albumin (BSA) • 11. Stop Buffer: 50 mM EDTA pH 8 • 12. Enhanced chemiluminescence (ECL) (Amersham) Procedure for performing the assay in 96-well plate: • 1. Add 10 μl 10 mM ATP to 1.25 ml 6 μM substrate peptide. Dilute the mixture with dH20 to 2.5 ml to make 2× ATP/substrate cocktail ([ATP]=[…], [substrate]=3 μm). • 2. Immediately transfer enzyme from −80° C. to ice. Allow enzyme to thaw on ice. • 3. Microcentrifuge briefly at 4° C. to bring liquid to the bottom of the vial. Return immediately to ice. • 4. Add 10 μl of DTT (1.25 M) to 2.5 ml of 4× HTScan™ Tyrosine Kinase Buffer (240 mM HEPES pH 7.5, 20 mM MgCl2, 20 mM MnCl2, 12 μM Na3VO4) to make DTT/Kinase buffer. • 5. Transfer 1.25 ml of DTT/Kinase buffer to enzyme tube to make 4× reaction cocktail ([enzyme]=4 ng/μL in 4× reaction cocktail). • 6. Incubate 12.5 μl of the 4× reaction cocktail with 12.5 μl/well of prediluted compound of interest (usually around 10 μM) for 5 minutes at room temperature. • 7. Add 25 μl of 2× ATP/substrate cocktail to 25 μl/well preincubated reaction cocktail/compound. Final Assay Conditions for a 50 μl Reaction: • 60 mM HEPES pH 7.5 • 5 mM MgCl2 • 5 mM MnCl2 • 3 μM Na3VO4 • 1.25 mM DTT • […] • 1.5 μM peptide • 10 units Flt3 Kinase • 8. Incubate reaction plate at room temperature for 30 minutes. • 9. Add 50 μl/well Stop Buffer (50 mM EDTA, pH 8) to stop the reaction. • 10. Transfer 50 μl of each reaction and 50 μl dH2O/well to a 96-well streptavidincoated plate and incubate at room temperature for 60 minutes. • 11. Wash three times with 200 μl/well PBS/T • 12. Dilute primary antibody, Phospho-Tyrosine Monoclonal Antibody (P-Tyr-100), 1:1000 in PBS/T with 1% BSA. Add 100 μl/well of primary antibody. • 13. Incubate at room temperature for 60 minutes. • 14. Wash three times with 200 μl/well PBS/T • 15. Dilute HRP labeled anti-mouse IgG 1:500 in PBS/T with 1% BSA. Add 100 μl/well diluted antibody. • 16. Incubate at room temperature for 30 minutes. • 17. Wash five times with 200 μl/well PBS/T. • 18. Add 100 μl/well ECL Solution. • 19. Detect luminescence with appropriate Plate Reader.

The subject of a further test is Raji. In words: Tumor cell proliferation (MTS), Raji. The conditions noted are these: Homo sapiens, 72 hours. Type of test: cell-based. How it is done: (§1) Measurement of in vivo cell proliferation:
(§2) Tumor cells were trypsinized and plated into 96-well plates at 3,000 per well and incubated in complete medium with 10% FBS for 24 hours. Compounds were added over a final concentration range of 100 μmol/L to 100 nmol/L in 0.1% DMSO and incubated for 72 hours in complete medium. The effects on proliferation were determined by addition of MTS reagent (Promega) according to the instruction, incubation for 2 hours at 37° C. in CO2 incubator, and record the absorbance at 490 nm using an ELISA plate reader.

A further test concerns Ramos. In words: Tumor cell proliferation (MTS), Ramos. Type of test: cell-based. As to conditions: Homo sapiens, 72 hours. The method, then: as §1, §2

The structures appear in SMILES notation.

Consider `Cc1[nH]c(/C=C2\C(=O)Nc3ccc(F)cc32)c(C)c1C(=O)NCCNc1ccc(C(=O)Nc2ccccc2N)cn1` [Example 3, (Z)-N-(2-aminophenyl)-6-(2-(2-((5-fluoro-2-oxoindolin-3-ylidene)methyl)-3,5-dimethyl-1H-pyrrole-4-carboxamido)ethylamino)nicotinamide], for which the concentration for 50% growth inhibition (GI50) is 126 nM in test [1], 3.45 µM with Raji and more than 60 µM in the test on Ramos. Besides, the IC50 against Flt3 is 76 nM.
The corresponding values for `Cc1[nH]c(/C=C2\C(=O)Nc3ccc(F)cc32)c(C)c1C(=O)NCCCCNc1ccc(C(=O)Nc2ccccc2N)cn1` [Example 9, (Z)-N-(2-aminophenyl)-6-(4-(2-((5-fluoro-2-oxoindolin-3-ylidene)methyl)-3,5-dimethyl-1H-pyrrole-4-carboxamido)butylamino)nicotinamide] are 32 nM, more than 60 µM, more than 60 µM and 25 nM.
As to `Cc1[nH]c(/C=N/N=C2\C(=O)Nc3ccc(F)cc32)c(C)c1C(=O)NCCNc1ccc(C(=O)Nc2ccccc2N)cn1` [Example 4, N-(2-aminophenyl)-6-(2-(2-(((5-fluoro-2-oxoindolin-3-ylidene)hydrazono)-methyl)-3,5-dimethyl-1H-pyrrole-4-carboxamido)ethylamino)nicotinamide], the GI50 in test [1] was more than 1000 nM; in the test on Raji it was more than 60 µM; in the test with Ramos it was more than 60 µM. Further, at Flt3, it took 870 nM to reach half-maximal inhibition (IC50).
In the case of `Cc1[nH]c(/C=N/N=C2\C(=O)Nc3ccc(F)cc32)c(C)c1C(=O)NCCCNc1ccc(C(=O)Nc2ccccc2N)cn1` [Example 7, N-(2-aminophenyl)-6-(3-(2-(((5-fluoro-2-oxoindolin-3-ylidene)hydrazono)-methyl)-3,5-dimethyl-1H-pyrrole-4-carboxamido)propylamino)nicotinamide], the GI50 in test [1] was more than 1000 nM; with Raji, more than 60 µM; in the test with Ramos, more than 60 µM. Further, half-maximal inhibition on Flt3 (IC50) required 451 nM.
Take `Cc1[nH]c(/C=C2\C(=O)Nc3ccc(F)cc32)c(C)c1C(=O)NCCCCNc1ccc(C(=O)Nc2ccc(F)cc2N)cn1` [Example 19, (Z)-N-(2-amino-4-fluorophenyl)-6-(4-(2-((5-fluoro-2-oxoindolin-3-ylidene)-methyl)-3,5-dimethyl-1H-pyrrole-4-carboxamido)butylamino)nicotinamide]: the GI50 in test [1] was 42 nM; with Raji, more than 60 µM; in the test with Ramos, more than 60 µM. At Flt3, this compound gave an IC50 of 21 nM.
With `Cc1[nH]c(/C=N/N=C2\C(=O)Nc3ccc(F)cc32)c(C)c1C(=O)NCCCNc1ccc(C(=O)Nc2ccc(F)cc2N)cn1` [Example 17, N-(2-amino-4-fluorophenyl)-6-(3-(2-(((5-fluoro-2-oxoindolin-3-ylidene)-hydrazono)methyl)-3,5-dimethyl-1H-pyrrole-4-carboxamido)propylamino)nicotinamide], the GI50 was more than 1000 nM in test [1], more than 60 µM with Raji and more than 60 µM in the test with Ramos. This compound also showed a half-maximal inhibitory concentration (IC50) at Flt3 of more than 1000 nM.
On to `Cc1[nH]c(/C=N/N=C2\C(=O)Nc3ccc(F)cc32)c(C)c1C(=O)NCCCCNc1ccc(C(=O)Nc2ccc(F)cc2N)cn1` [Example 20, N-(2-amino-4-fluorophenyl)-6-(4-(2-(((5-fluoro-2-oxoindolin-3-ylidene)-hydrazono)methyl)-3,5-dimethyl-1H-pyrrole-4-carboxamido)butylamino)nicotinamide], for which the concentration for 50% growth inhibition (GI50) in test [1] is more than 1000 nM; in the test on Raji, more than 60 µM; with Ramos, more than 60 µM. For the same compound, the IC50 against Flt3 is more than 1000 nM.
As for `Cc1[nH]c(/C=N/N=C2\C(=O)Nc3ccc(F)cc32)c(C)c1C(=O)NCCCCNc1ccc(C(=O)Nc2ccccc2N)cn1` [Example 10, N-(2-aminophenyl)-6-(4-(2-(((5-fluoro-2-oxoindolin-3-ylidene)hydrazono)-methyl)-3,5-dimethyl-1H-pyrrole-4-carboxamido)butylamino)nicotinamide], the 50% growth inhibitory concentration (GI50) in test [1] is more than 1000 nM; in the test with Raji, more than 60 µM; in the test on Ramos, more than 60 µM. In addition, the 50% inhibitory concentration (IC50) at Flt3 was more than 1000 nM.

Values taken from US8158656B2, “2-indolinone derivatives as multi-target protein kinase inhibitors and histone deacetylase inhibitors” (Shenzhen Chipscreen Biosciences Ltd., priority 2008, dated 2012).
